{"source": "patent US10357501B2", "about": "“Treating conditions associated with increased eotaxin with 25-hydroxyvitamin D3” (DSM IP ASSETS B.V., priority 2010, dated 2019)", "key": {"[1]": {"conditions": "in vivo; cited from earlier work"}, "[2]": {"conditions": "considered; no test described; cited from earlier work"}, "[3]": {"assay": "Clinical trial: 25(OH)D levels after oral supplementation", "conditions": "female, human, in vivo", "experimental": "The objective was studying and comparing the pharmacokinetic characteristics of vitamin D3 and 25-hydroxyvitamin D3 administered to humans. Equimolar quantities of both substances were investigated. The regimen was based on 20 μg/day (or its equivalent on a weekly basis) of 25-hydroxyvitamin D3. For comparative purposes, it was necessary to administer equimolar quantities of either vitamin D3 or 25-hydroxyvitamin D3. In respect to administration of vitamin D3, the dose was considered to be sufficient to overcome background variability and provide and efficacious dose to the participants. […]\nPlasma concentrations of 25-hydroxyvitamin D3 (e.g., peak and steady state) were determined by obtaining samples from the subjects at various times after the dosage was ingested. For screening purposes and to establish baseline values, a blood sample was obtained prior to enrollment into the study and the clinical laboratory measured vitamin D3, 25-hydroxyvitamin D3, calcium, creatinine, albumin, and fasting glucose in the serum. […]\nTwenty healthy postmenopausal women with 25-Hydroxyvitamin D3 levels below 25 ng/ml and a mean age of 61.5 years (SD ±7.2) were enrolled in this study. […] On 14 visits over 4 months, 25(OH)D levels, and 7 inflammation markers (eotaxin, IL-8, IL-12, IP-10, MCP-1, MP-1β, RANTES) were measured. […]"}, "[4]": {"conditions": "ingestion of 250 μg/day as a dietary supplement; cited from earlier work"}}, "data": [{"compound": "25-hydroxyvitamin D", "values": [{"measurement": "blood concentration at which hypercalcemia may occur", "setting": "[1]", "result": "greater than 375 nmol/L"}]}, {"compound": "C=C1CC[C@H](O)C/C1=C/C=C1\\CCC[C@]2(C)[C@@H]([C@H](C)CCCC(C)(C)O)CC[C@@H]12", "note": "[25-Hydroxyvitamin D3, 25-hydroxyvitamin D3]", "values": [{"measurement": "activity relative to Vitamin D3", "setting": "[2]", "result": "approximately 3 ×"}]}, {"compound": "C=C1CC[C@H](O)C/C1=C/C=C1\\CCC[C@]2(C)[C@@H]([C@H](C)CCCC(C)C)CC[C@@H]12", "note": "[Vitamin D3, cholecalciferol]", "values": [{"measurement": "Mean 25(OH)D levels", "setting": "[3]", "result": 13.5, "unit": "ng/mL"}]}, {"compound": "Vitamin D", "values": [{"measurement": "blood concentration of 25-hydroxyvitamin D", "setting": "[4]", "result": "about 200 nmol/L"}]}]}
